# Results published in patent publication US20100311756A1, “METHODS FOR DELAYING THE PROGRESSION OF AT LEAST ONE OF CARDIAC HYPERTROPHY, CARDIAC REMODELING OR LEFT VENTRICULAR FUNCTION OR THE ONSET OF HEART FAILURE IN SUBJECTS IN NEED OF TREATMENT THEREOF” (TAKEDA PHARMACEUTICALS NORTH AMERICA, INC., priority 2009, published 2010).
# Entries after “also recorded” stand apart in the source; their conditions may differ. Marks after values point to notes of the source that are not given here.
# Tested on: TAC mice
# Assay: Transverse aortic constriction (TAC) in mice, Protocol 1: febuxostat for 8 days beginning ~60 min after TAC
# Type: in vivo
# Excerpt: • Mice. Male C57/BL6 mice at 8-9 weeks of age were purchased from Jackson Laboratories (Bar Harbor, Me.) for use in this study. Mice were housed in an air-conditioned room with a 12-hour:12-hour light-dark cycle, received standard mouse chow, and drank tap water. This study was approved by the Institutional Animal Care and Use Committee of the University of Minnesota. • Experimental Protocol 1. This protocol was designed to determine whether febuxostat (2-[3-cyano-4-(2-methylpropoxy)phenyl]-4-methylthiazole-5-carboxylic acid) treatment, beginning immediately after the onset of acute pressure overload, could protect against transverse aortic constriction (TAC)-induced left ventricular (LV) hypertrophy, dysfunction and mortality. Three treatment groups were included (See Table 1, below): sham-operated mice (n=20), TAC mice treated with vehicle (0.5% methylcellulose) (n=30), and TAC mice treated with febuxostat (suspension in 0.5% methylcellulose) (n=30). To generate LV hypertrophy in a short time period with a significant incidence of cardiac mortality, TAC was created by ligating the transverse aorta against a 27 G needle to create severe LV pressure overload. Since mice tend to take in less water and food during the first 1-3 days after the TAC procedure, febuxostat (5 mg/kg/day in 250 μl vehicle) or vehicle (250 μl) was administered daily by oral gavage for a total of 8 days, with the first dose administered on the day of the surgery after the animal awoke from anesthesia (˜60 min after the TAC procedure). On the eighth day, LV function was assessed by echocardiography approximately 1 hour after the last febuxostat or vehicle dose. Approximately 3 hours after echocardiographic evaluation (4 hours after the last febuxostat or vehicle dose), the mice were weighed and blood samples collected. The animals were euthanized and the heart and lungs excised; the right and left atria were trimmed away, and the ventricles and lungs were weighed. Tissue from the left ventricle was used for histological evaluation and Western blots. • Experimental Protocol 2. This protocol was designed to determine whether administration of febuxostat (FBS) or allopurinol (AL) beginning after the onset of cardiac hypertrophy, LV dysfunction and heart failure could exert a protective effect. For this protocol, mice subjected to TAC (using a 26 gauge (G) needle to generate moderate TAC) or sham surgery were divided into six experimental groups as described in Table 1, below. Beginning seven days after TAC, animals were treated with vehicle (0.01 mg/ml NaCl, equivalent salt content as in the FBS drinking water), FBS (0.05 mg/ml) or AL (0.15 mg/ml) in drinking water for three weeks. Following three weeks of treatment, ventricular function was assessed by echocardiography. Blood samples and cardiac tissue were collected during 2-3 hours after the echocardiographic evaluation as described previously in Protocol 1.
# • Minimally Invasive TAC Procedure. TAC was performed using the minimally invasive suprasternal approach described by Hu et al. (See, Hu et al., Am. J. Physiol. Heart Circ. Physiol., 3:H1261-9 (2003)). Mice were anesthetized with a mixture of 80 mg/kg ketamine and 30 mg/kg xylazine intraperitoneally. A horizontal incision was made at the level of the suprasternal notch to allow direct visualization of the transverse aorta without entering the pleural space. With the aid of a dissecting microscope, aortic constriction was performed by ligating the aorta between the right innominate artery and the left carotid artery over a 27 G) needle using 5-0 silk suture. The needle was immediately removed after ligation, leaving the aortic constriction in place. The incision was closed and the animals were allowed to recover. Analgesia was provided before the mice awoke from anesthesia. Sham surgery utilized the same procedure but without aortic ligation. • Echocardiography.
# [1] = 5 mg/kg/day oral gavage for 8 days from ~60 min after TAC
# [2] = 8 days, versus TAC vehicle, listed as FBS
compound,measurement,setting,value
"Cc1nc(-c2ccc(OCC(C)C)c(C#N)c2)sc1C(=O)O [febuxostat, 2-[3-cyano-4-(2-methylpropoxy)phenyl]-4-methylthiazole-5-carboxylic acid]",Anterior wall thickness at end-diastole,[1],0.84 ± 0.02 mm
same,Anterior wall thickness at end-systole,[1],1.10 ± 0.04 mm
same,LV fractional shortening,[1],"31.5 ± 2.2*^,# %"
same,Lung weight,[1],163 ± 16 mg
same,Posterior wall thickness at end-diastole,[1],"0.83 ± 0.02*^,# mm"
same,Posterior wall thickness at end-systole,[1],1.10 ± 0.03 mm
same,Ventricle weight,[1],"138 ± 7.0*^,# mg"
same,Cardiac myocyte diameter,8 days,16.3±0.3 μm
same,Mortality (mice died),8 days,14 out of 30
same,Myocardial fibrosis,8 days,8.3±2. %
same,TAC-induced left ventricular (LV) hypertrophy,"8 days, FIG. 1A",significantly attenuated
same,TAC-induced pulmonary congestion,"8 days, FIG. 1B",tended to decrease
same,TAC-induced cardiac sudden death / mortality (effect),"8 days, FIG. 1C",not affected; also recorded: no effect
same,TAC-induced increase of myocardial ANP,"8 days, Western blot of LV",significantly attenuated
same,TAC-induced increase of myocardial collagen III,"8 days, Western blot of LV",significantly attenuated
same,TAC-induced increase of myocardial nitrotyrosine,"8 days, Western blot of LV",significantly blunted
same,TAC-induced increase of myocardial pre-collagen I,"8 days, Western blot of LV",significantly attenuated
same,TAC-induced increase of p-Erk Thr202/204,"8 days, Western blot of LV",significantly attenuated
same,TAC-induced increase of p-mTOR Ser2488,"8 days, Western blot of LV",significantly attenuated
same,TAC-induced increase of t-Erk,"8 days, Western blot of LV",significantly attenuated
same,TAC-induced increase of myocardial nitrotyrosine,"8 days, Western blot of LV, listed as FBS",significantly attenuated
same,Decrease of pulmonary congestion (ratio of lung weight to body weight),"8 days, versus TAC vehicle",about 18%
same,LV diameter at end-diastole,"8 days, versus TAC vehicle",no significant effect
same,Plasma uric acid,"8 days, versus TAC vehicle",significantly decreased
same,Reduction of ventricular hypertrophy (ratio of ventricular mass to body weight),"8 days, versus TAC vehicle",approximately 15%
same,TAC-induced decrease of LV ejection fraction,"8 days, versus TAC vehicle",attenuated
same,TAC-induced decrease of LV fractional shortening,"8 days, versus TAC vehicle",attenuated
same,TAC-induced increase of LV diameter at end-systole,"8 days, versus TAC vehicle",trend toward attenuating
same,TAC-induced increase of LV end-diastolic wall thickness,"8 days, versus TAC vehicle",significantly attenuated
same,LV diameter at end-diastole,[2],not changed
same,TAC-induced decrease of LV ejection fraction,[2],significantly attenuated
same,TAC-induced increase of LV diameter at end-systole,[2],trend toward attenuation
